# Like-named read-outs stand apart in the source and are kept apart here.
# How the values were obtained:
# [1] = pH 6.36
# [2] = test system: rabbit eye; details: cited from earlier work
# [3] = no antioxidants, predicted GHS class, cited from earlier work
# [4] = OPTISAFE in vitro ocular irritation test, original formulation without antioxidants; details: for OPTISAFE (no antioxidant) Score AVG: ROS/CL chemicals; for OPTISAFE (no antioxidant) Score AVG / OPTISAFE Score AVG: triplicate assays; for OPTISAFE Score AVG: original formulation without antioxidants
# Experimental: Surfactants were diluted.
# Next a study was conducted to determine if the addition of antioxidants changes the reliability (repeatability) of the test method. After this, a large study determined if antioxidants specifically reduce the false positive rate without impacting the true positive rate and the true negative rate and then all prior test chemicals were rested with antioxidants in triplicate.
# [5] = OS2 (OPTISAFE2), OPTISAFE formulation with antioxidants; details: for OS2 Cons: majority prediction of the triplicate assays; for OS2 R1 / 0S2 R1: repeat 1, with antioxidants; for OS2 R1 / OS2 R3 / 0S2 R1: predicted GHS class; for OS2 R3: repeat 3, with antioxidants
# [6] = Table 7B, based on the Draize data
# [7] = Table 7B, consensus of past application domain study
# [8] = Table 7A, consensus of past transferability study
# [9] = Table 7A, based on the Draize data
compound,measurement,setting,value
CC(C)O [Isopropanol],OS2 Cons,[1],2
same,OS2 R1,[1],2
same,OS2 R3,[1],2
same,In vivo GHS,[2]; [6],2A (2A (reversal by 7 days))
same,OS Cons,[3]; [7],2
CC(C)Br [iso-Propyl bromide],OPTISAFE prediction without the antioxidant mixture,[4],overpredicted
"C=CCCCCCCC=C [1,9-Decadiene]",OPTISAFE (no antioxidant) Score AVG,[4],22.5 ± 3.6
same,OS2 (with antioxidant) Score AVG,[1],11.4 ± 6.4
same,OS Cons,[3]; [8],2
CCCCCCCCCCCCCC(=O)OC(C)C [Isopropyl myristae],known ocular irritancy (FIG. 4 legend),"[2]; rabbit, in vivo",Nonirritants
"CCC(O)C(C)(C)C (stereo not drawn) [2,2-Dimethyl-3-pentanol]",OPTISAFE prediction without the antioxidant mixture,[4],overpredicted
same,OPTISAFE Score AVG,[4],19.2 ± 1.2
same,OS2 Score AVG,[1],15.1 ± 0.4
same,OS Cons,[3]; [8],2
CC(O)C(=O)O (stereo not drawn) [Lactic Acid],In vivo GHS,"[2]; rabbit, in vivo",1 (key: NC (not classified as an irritant); 2A (reversal by 7 days); 2B (reversal by 14 days); 1 (no reversal by 21 days))
CC(C)(O)CCC(C)(C)O,OS2 Cons,[5]; Table 7B,1
same,OS2 R1,[5]; Table 7B,2
same,OS2 R3,[5]; Table 7B,1
CCCCCCCCCCCC(=O)O [Lauric acid],OS2 Cons,[1],1
same,OS2 R1,[1],1
same,OS2 R3,[1],1
same,In vivo GHS,[2]; [6],1 (1 (no reversal by 21 days))
same,OS Cons,[3]; [7],1
O=C1CCCO1 [gamma-Butyrolactone],In vivo GHS,[2]; [6],2A (2A (reversal by 7 days))
same,OS Cons,[3]; [7],2
same,OS2 Cons,[5]; Table 7B,2
same,OS2 R1,[5]; Table 7B,2
same,OS2 R3,[5]; Table 7B,2
COC(=O)CC#N [Methyl cyanoacetate],0S2 R1,[1],1
same,OS2 Cons,[1],1
same,OS2 R3,[1],1
same,In vivo GHS,[2]; [9],2A (2A (reversal by 7 days))
same,OS Cons,[3]; [8],1
OCc1cccc(Oc2ccccc2)c1 [3-Phenoxybenzyl alcohol],OS2 Cons,[1],2
same,OS2 R1,[1],2
same,OS2 R3,[1],2
same,OS Cons,[3]; [7],2
CC(C)CO [Isobutanol],0S2 R1,[1],1
same,OS2 Cons,[1],1
same,OS2 R3,[1],1
same,In vivo GHS,[2]; [9],2A (2A (reversal by 7 days))
same,OS Cons,[3]; [8],1
COC(C)=O [Methyl acetate],OS2 Cons,[1],2
same,OS2 R1,[1],2
same,OS2 R3,[1],2
same,In vivo GHS,[2]; [6],2A (2A (reversal by 7 days))
same,known ocular irritancy (FIG. 4 legend),"[2]; rabbit, in vivo",Irritants
same,OS Cons,[3]; [7],2
CCCC(C)CO (stereo not drawn) [2-Methyl-1-pentanol],0S2 R1,[1],2
same,OS2 Cons,[1],2
same,OS2 R3,[1],2
same,In vivo GHS,[2]; [9],2B (2B (reversal by 14 days))
"CCN(CC)C(=O)c1cccc(C)c1 [n,n-Diethyl-m-toluamide]",In vivo GHS,[2]; [6],2B (2B (reversal by 14 days))
same,known ocular irritancy (FIG. 4 legend),"[2]; rabbit, in vivo",Irritants
same,OS Cons,[3]; [7],2
same,OS2 Cons,[5]; Table 7B,1
same,OS2 R1,[5]; Table 7B,1
same,OS2 R3,[5]; Table 7B,1
CCOC(C)=O [Ethyl acetate],OPTISAFE Score AVG,[4],23.9 ± 2.0
same,OS2 Cons,[1],2
same,OS2 R1,[1],2
same,OS2 R3,[1],2
same,OS2 Score AVG,[1],25.6 ± 2.4
O.O.O.O.[Na+].[O-]B1OO1 [Sodium perborate tetrahydrate],OS2 Cons,[5]; Table 7B,1
same,OS2 R1,[5]; Table 7B,1
same,OS2 R3,[5]; Table 7B,1
N#CCCCl [3-Chloropropionitrile],In vivo GHS,[2]; [6],2B (2B (reversal by 14 days))
CC(C)C=O [Isobutyraldehyde],OS2 Cons,[1],1
same,OS2 R3,[1],1
same,In vivo GHS,"[2]; rabbit, in vivo",2B (key: NC (not classified as an irritant); 2A (reversal by 7 days); 2B (reversal by 14 days); 1 (no reversal by 21 days))
CCCCCCCCCCCC [Dodecane],OPTISAFE Score AVG,[4],0.9 ± 0.8
same,OS2 Score AVG,[1],3.0 ± 2.6
C=CCO [Allyl alcohol],In vivo GHS,[2]; [6],2A (2A (reversal by 7 days))
same,OS Cons,[3]; [7],1
same,OS2 Cons,[5]; Table 7B,1
same,OS2 R1,[5]; Table 7B,1
same,OS2 R3,[5]; Table 7B,1
CCCCC(CC)COC(=O)CS (stereo not drawn),OPTISAFE prediction without the antioxidant mixture,[4],overpredicted
"O=C=Nc1ccc(Cl)c(Cl)c1 [3,4-Dichlorophenyl isocyanate]",In vivo GHS,[2]; [9],1 (1 (no reversal by 21 days))
same,OS Cons,[3]; [8],1
same,OS2 Cons,[5]; Table 7A,1
same,0S2 R1,[5]; Table 7A,1
same,OS2 R3,[5]; Table 7A,1
"O=C(Cl)c1c(Cl)cccc1Cl [2,6-Dichlorobenzoyl chloride]",OS2 Cons,[1],1
same,OS2 R1,[1],1
same,OS2 R3,[1],1
same,In vivo GHS,[2]; [6],2A (2A (reversal by 7 days))
same,OS Cons,[3]; [7],1
OCCOCCOCCO [Triethylene glycol],OPTISAFE (no antioxidant) Score AVG,[4],13.2 ± 3.5
same,OS2 (with antioxidant) Score AVG,[1],5.1 ± 1.7
same,OS2 score average,[1],3.1
same,OS2 scores ranged from,[1],2.1-4.2
same,Score = Average score,[1],3.1
same,OS Cons,[3]; [7],2
CCOC(=O)C(C)C(C)=O (stereo not drawn) [Ethyl-2-methyl acetoacetate],In vivo GHS,[2]; [6],2B (2B (reversal by 14 days))
same,OS Cons,[3]; [7],1
same,OS2 Cons,[5]; Table 7B,1
same,OS2 R1,[5]; Table 7B,1
same,OS2 R3,[5]; Table 7B,1
OC1CCCC1 [Cyclopentanol],OS2 Cons,[1],1
same,OS2 R1,[1],1
same,OS2 R3,[1],1
same,In vivo GHS,[2]; [6],2A (2A (reversal by 7 days))
same,OS Cons,[3]; [7],1
CC(C)=O [Acetone],In vivo GHS,[2]; [6],2A (2A (reversal by 7 days))
same,OS Cons,[3]; [7],2
same,OS2 Cons,[5]; Table 7B,2
same,OS2 R1,[5]; Table 7B,2
same,OS2 R3,[5]; Table 7B,2
Nc1ncccc1O [2-Amino-3-pyridinol],In vivo GHS,[2]; [6],2A (2A (reversal by 7 days))
same,OS Cons,[3]; [7],CNM
O=P(O)(OCc1ccccc1)OCc1ccccc1 [Dibenzyl phosphate],OS2 Cons,[5]; Table 7A,1
same,0S2 R1,[5]; Table 7A,1
same,OS2 R3,[5]; Table 7A,1
CCCCCCCCOCCCCCCCC [Dioctyl ether],known ocular irritancy (FIG. 4 legend),"[2]; rabbit, in vivo",Nonirritants
CCCOCC(C)O (stereo not drawn) [Propasol solvent P],In vivo GHS,[2]; [9],2A (2A (reversal by 7 days))
same,OS Cons,[3]; [8],2
same,OS2 Cons,[5]; Table 7A,2
same,0S2 R1,[5]; Table 7A,2
same,OS2 R3,[5]; Table 7A,2
CC(C=O)Cc1ccc(C(C)(C)C)cc1 (stereo not drawn) [Protectol PP],OS2 Cons,[5]; Table 7B,1
same,OS2 R1,[5]; Table 7B,1
same,OS2 R3,[5]; Table 7B,1
C=C1C2CCC(C2)C1(C)C (stereo not drawn) [Camphene],0S2 R1,[1],2
same,OS2 Cons,[1],2
same,OS2 R3,[1],2
"CCCCC(CC)COC(=O)CC(C(=O)OCC(CC)CCCC)S(=O)(=O)[O-].[Na+] (stereo not drawn) [Butanedioic acid, sulfo-, 1,4-bis(2-ethylhexyl) ester, sodium salt]",OS2 Cons,[1],2
same,OS2 R1,[1],2
same,OS2 R3,[1],2
same,In vivo GHS,[2]; [6],1 (1 (no reversal by 21 days))
same,OS Cons,[3]; [7],2
CCOCCOCCO [2-(2-Ethoxyethoxy)ethanol],OPTISAFE (no antioxidant) Score AVG,[4],21.7 ± 0.3
same,OS2 (with antioxidant) Score AVG,[1],12.0 ± 0.3
same,OS Cons,[3]; [7],2
Sodium lauroyl sarcosinate [Sodium lauroyl sarcosinate (10%)],"OS2 result, expanded surfactant study",[5]; due to assay inhibition,CNM
"O=C(O)CCSSCCC(=O)O [3,3-Dithiodipropionic acid]",OS2 Cons,[5]; Table 7A,1
same,0S2 R1,[5]; Table 7A,1
same,OS2 R3,[5]; Table 7A,1
Diethylaminopropionitrile,In vivo GHS,[2]; [6],1 (1 (no reversal by 21 days))
same,OS Cons,[3]; [7],CNM
same,OS2 Cons,[5]; Table 7B,1
same,OS2 R1,[5]; Table 7B,2
same,OS2 R3,[5]; Table 7B,1
CCCCCCBr [n-Hexyl bromide],known ocular irritancy (FIG. 4 legend),"[2]; rabbit, in vivo",Nonirritants
CC(=O)CC(=O)OC(C)C [Isopropyl acetoacetate],OS2 Cons,[1],1
same,OS2 R1,[1],1
same,OS2 R3,[1],1
same,In vivo GHS,[2]; [6],2B (2B (reversal by 14 days))
same,OS Cons,[3]; [7],1
c1c[nH]cn1 [Imidazole],In vivo GHS,"[2]; rabbit, in vivo",1 (key: NC (not classified as an irritant); 2A (reversal by 7 days); 2B (reversal by 14 days); 1 (no reversal by 21 days))
Cc1ncnc2nc[nH]c12 [6-Methyl purine],In vivo GHS,[2]; [6],2B (2B (reversal by 14 days))
same,OS2 Cons,[5]; Table 7B,2/1
same,OS2 R1,[5]; Table 7B,2/1
same,OS2 R3,[5]; Table 7B,1
CCCCCCCCO [n-Octanol],OS2 Cons,[1],2
same,OS2 R1,[1],2
same,OS2 R3,[1],2
same,OS2 score average,[1],19.1
same,OS2 scores ranged from,[1],16.5-22.8
same,Score = Average score,[1],19.1
same,In vivo GHS,[2]; [6],2A (2A (reversal by 7 days))
same,known ocular irritancy (FIG. 4 legend),"[2]; rabbit, in vivo",Irritants
same,OS Cons,[3]; [7],2
OC1CCCCC1 [Cyclohexanol],in vivo GHS,"[2]; Table 3, eye irritation class",1 (1 (no reversal by 21 days))
same,GHS,[2]; Table 4,Cat. 1
same,In vivo GHS,[2]; [6],1 (1 (no reversal by 21 days))
"CC(O)CC(C)O (stereo not drawn) [2,4-Pentanediol]",OPTISAFE Score AVG,[4],12.0 ± 1.4
same,OS2 Score AVG,[1],10.2 ± 0.7
same,OS2 score average,[1],9.5
same,OS2 scores ranged from,[1],7.8-10.9
same,Score = Average score,[1],9.5
CCCCCCO [n-Hexanol],OS2 Cons,[1],2
same,OS2 R1,[1],2
same,OS2 R3,[1],1
same,In vivo GHS,[2]; [6],2A (2A (reversal by 7 days))
same,OS Cons,[3]; [7],2
O=C(Nc1ccc(Cl)cc1)Nc1ccc(Cl)c(Cl)c1 [Triclocarban],OS Cons,[3]; [7],CNM
same,OS2 Cons,[5]; Table 7B,CNM
same,OS2 R1,[5]; Table 7B,CNM
same,OS2 R3,[5]; Table 7B,CNM
O=C([O-])CCl.[Na+] [Sodium chloroacetate],In vivo GHS,[2]; [9],2B (2B (reversal by 14 days))
Cc1ccc(C=S)cc1 [p-Methyl thiobenzaldehyde],OS2 Cons,[1],1
same,OS2 R1,[1],1
same,OS2 R3,[1],1
same,OS Cons,[3]; [7],1
"S=C([S-])NCCNC(=S)[S-].[Mn+2] [Maneb (solid), Maneb]",In vivo GHS,"[2]; rabbit, in vivo",2B (key: NC (not classified as an irritant); 2A (reversal by 7 days); 2B (reversal by 14 days); 1 (no reversal by 21 days))

# Source: patent US12115147B2, “Formulations and methods related to eye irritation” (Lebrun Labs LLC, priority 2020, dated 2024)
